Assay results from ChEMBL document CHEMBL1129456, “Synthesis and evaluation of two positron-labeled nitric oxide synthase inhibitors, S-[11C]methylisothiourea and S-(2-[18F]fluoroethyl)isothiourea, as potential positron emission tomography tracers” (J Med Chem, 1996).

Legend:
[1] = target: Nitric oxide synthase, inducible (Homo sapiens, UniProt P35228); test: The compound was evaluated for the inhibitory potencies using human Inducible nitric oxide synthase (hiNOS)
[2] = target: T1, Nitric oxide synthase 3 (Homo sapiens, UniProt P29474); test: The compound was evaluated for the inhibitory potencies using human Endothelial nitric oxide synthase
T1 sequence (P29474 whole entry): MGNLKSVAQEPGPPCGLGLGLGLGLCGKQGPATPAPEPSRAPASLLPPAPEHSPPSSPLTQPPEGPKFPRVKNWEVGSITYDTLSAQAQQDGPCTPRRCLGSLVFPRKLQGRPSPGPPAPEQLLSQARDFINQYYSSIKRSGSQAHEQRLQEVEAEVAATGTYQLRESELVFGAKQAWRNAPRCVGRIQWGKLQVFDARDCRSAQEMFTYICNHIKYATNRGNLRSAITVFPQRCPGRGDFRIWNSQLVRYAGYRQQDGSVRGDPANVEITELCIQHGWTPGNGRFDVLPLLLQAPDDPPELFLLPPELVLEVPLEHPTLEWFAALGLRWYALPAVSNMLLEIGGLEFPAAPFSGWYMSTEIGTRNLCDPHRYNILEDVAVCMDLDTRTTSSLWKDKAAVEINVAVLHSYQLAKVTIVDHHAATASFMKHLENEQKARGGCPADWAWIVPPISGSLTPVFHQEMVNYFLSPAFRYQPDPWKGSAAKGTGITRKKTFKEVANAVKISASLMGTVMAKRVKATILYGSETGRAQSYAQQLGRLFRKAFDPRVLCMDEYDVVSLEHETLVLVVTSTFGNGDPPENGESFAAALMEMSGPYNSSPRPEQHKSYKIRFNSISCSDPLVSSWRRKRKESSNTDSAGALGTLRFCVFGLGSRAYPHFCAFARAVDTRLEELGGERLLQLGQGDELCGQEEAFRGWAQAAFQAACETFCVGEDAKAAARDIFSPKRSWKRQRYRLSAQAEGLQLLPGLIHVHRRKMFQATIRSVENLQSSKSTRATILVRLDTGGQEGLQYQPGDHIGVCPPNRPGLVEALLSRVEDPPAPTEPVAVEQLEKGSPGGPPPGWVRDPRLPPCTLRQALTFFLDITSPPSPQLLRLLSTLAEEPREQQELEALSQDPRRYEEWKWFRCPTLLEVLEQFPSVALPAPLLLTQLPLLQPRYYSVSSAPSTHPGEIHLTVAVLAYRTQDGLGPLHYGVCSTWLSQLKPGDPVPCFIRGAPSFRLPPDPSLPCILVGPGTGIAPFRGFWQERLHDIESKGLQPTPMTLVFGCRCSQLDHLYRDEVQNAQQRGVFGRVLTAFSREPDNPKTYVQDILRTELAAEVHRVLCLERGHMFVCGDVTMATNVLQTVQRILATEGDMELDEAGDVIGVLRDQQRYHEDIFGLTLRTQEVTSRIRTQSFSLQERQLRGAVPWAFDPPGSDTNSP

[3] = species on record: Rattus norvegicus; test: Maximum enzyme concentration from lipopolysaccharide treated rat liver.; format: functional
[4] = target: T2, Nitric oxide synthase, inducible (Mus musculus, UniProt P29477); test: Binding affinity against mouse Inducible nitric oxide synthase (iNOS)
T2 sequence (P29477 whole entry): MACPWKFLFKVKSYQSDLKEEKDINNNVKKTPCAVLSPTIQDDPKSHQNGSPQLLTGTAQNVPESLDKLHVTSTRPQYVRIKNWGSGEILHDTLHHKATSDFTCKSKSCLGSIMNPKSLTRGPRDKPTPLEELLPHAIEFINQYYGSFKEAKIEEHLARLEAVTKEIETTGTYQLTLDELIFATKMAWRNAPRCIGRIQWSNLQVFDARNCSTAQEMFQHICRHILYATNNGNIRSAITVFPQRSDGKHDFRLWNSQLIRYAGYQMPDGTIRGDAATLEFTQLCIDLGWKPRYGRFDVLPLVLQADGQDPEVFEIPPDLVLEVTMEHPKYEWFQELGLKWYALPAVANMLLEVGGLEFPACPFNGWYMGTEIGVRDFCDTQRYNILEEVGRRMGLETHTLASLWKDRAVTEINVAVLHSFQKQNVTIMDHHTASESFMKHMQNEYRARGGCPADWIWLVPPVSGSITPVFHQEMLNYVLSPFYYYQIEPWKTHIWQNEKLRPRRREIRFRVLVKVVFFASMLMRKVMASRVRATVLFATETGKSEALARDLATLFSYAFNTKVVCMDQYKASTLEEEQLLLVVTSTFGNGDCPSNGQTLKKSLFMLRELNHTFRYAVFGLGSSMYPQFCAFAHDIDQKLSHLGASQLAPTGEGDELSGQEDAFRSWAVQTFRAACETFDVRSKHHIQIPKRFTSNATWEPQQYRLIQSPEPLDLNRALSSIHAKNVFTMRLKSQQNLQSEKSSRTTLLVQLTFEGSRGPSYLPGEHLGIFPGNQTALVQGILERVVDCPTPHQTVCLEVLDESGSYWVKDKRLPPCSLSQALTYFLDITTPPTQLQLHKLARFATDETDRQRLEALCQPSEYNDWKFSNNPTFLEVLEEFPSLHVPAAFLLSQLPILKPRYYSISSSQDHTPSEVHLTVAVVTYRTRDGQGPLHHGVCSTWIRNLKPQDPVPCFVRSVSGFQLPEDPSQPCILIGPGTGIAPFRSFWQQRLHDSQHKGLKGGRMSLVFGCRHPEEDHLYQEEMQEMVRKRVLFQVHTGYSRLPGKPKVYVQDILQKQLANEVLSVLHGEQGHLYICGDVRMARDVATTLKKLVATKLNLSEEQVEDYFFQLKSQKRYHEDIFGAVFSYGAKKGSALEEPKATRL

Sequence of Nitric oxide synthase, inducible (Homo sapiens, UniProt P35228) (P35228 whole entry): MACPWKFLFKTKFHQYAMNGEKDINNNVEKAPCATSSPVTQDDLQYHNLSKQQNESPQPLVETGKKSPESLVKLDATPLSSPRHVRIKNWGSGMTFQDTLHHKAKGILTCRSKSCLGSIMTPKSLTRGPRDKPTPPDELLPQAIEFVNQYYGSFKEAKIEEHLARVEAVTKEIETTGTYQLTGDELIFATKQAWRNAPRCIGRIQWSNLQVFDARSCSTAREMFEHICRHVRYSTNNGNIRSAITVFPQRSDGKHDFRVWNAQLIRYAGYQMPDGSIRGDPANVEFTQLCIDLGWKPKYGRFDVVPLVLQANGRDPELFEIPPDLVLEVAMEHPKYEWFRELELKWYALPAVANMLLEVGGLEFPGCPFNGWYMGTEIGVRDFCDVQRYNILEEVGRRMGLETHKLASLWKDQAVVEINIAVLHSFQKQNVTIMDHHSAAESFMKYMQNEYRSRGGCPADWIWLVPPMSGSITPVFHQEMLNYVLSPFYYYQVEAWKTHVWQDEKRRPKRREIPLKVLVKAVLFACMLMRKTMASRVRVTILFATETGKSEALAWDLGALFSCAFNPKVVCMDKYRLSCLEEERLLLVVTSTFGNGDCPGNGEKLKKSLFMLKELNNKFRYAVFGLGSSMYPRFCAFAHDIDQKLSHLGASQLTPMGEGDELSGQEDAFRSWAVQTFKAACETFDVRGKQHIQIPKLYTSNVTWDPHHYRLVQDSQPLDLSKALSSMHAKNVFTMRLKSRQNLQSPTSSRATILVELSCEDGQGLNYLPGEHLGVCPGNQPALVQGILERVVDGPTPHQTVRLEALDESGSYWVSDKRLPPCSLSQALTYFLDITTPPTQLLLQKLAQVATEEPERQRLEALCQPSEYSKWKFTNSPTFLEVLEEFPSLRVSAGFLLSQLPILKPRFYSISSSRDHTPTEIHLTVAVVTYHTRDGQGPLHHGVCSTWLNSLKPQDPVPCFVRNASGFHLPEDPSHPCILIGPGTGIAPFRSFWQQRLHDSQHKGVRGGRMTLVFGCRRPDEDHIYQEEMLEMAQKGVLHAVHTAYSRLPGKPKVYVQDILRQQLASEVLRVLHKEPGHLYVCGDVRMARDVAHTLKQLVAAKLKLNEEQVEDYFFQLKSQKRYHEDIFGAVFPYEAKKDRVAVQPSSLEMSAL

IC50 [1] [nM]	IC50 [2] [nM]	Ki [4] [nM]	SMILES	Bmax [3] [nM]
3000	7000	–	CSC(=N)N	–
160	1300	5.2	CCSC(=N)N [ETHYLISOTHIOUREA]	85
